Data from article PMC11178787, “Development of a natural product optimization strategy for inhibitors against MraY, a promising antibacterial target” (Nature Communications, 2024).
Values after ≈ are worked out from the molar mass of the structure shown. Read-outs that look alike come from different tables or passages of the source.

Key:
[1] = system: T1, E. faecium(VRE) ATCC 51858; assay: microbe, parasite or virus in culture; parameters: CLSI broth microdilution MIC in MHB-II, single trial; conditions: Enterococcus faecium, 18 h
T1 construct: ATCC 51858 (VRE)
Method: (§1) MICs were determined by a microdilution broth method as recommended by the CLSI with MHB-II. For MICs of stable analogues, a 2-fold dilution of each compound was prepared in DMSO at 100-fold of the final concentration. The strains were inoculated with 5 × 10^5 cfu/mL in 96-well plates (each 100 μL/well), and 1 μL of DMSO solutions of the samples were added (contained less than 1% DMSO). The plates were incubated at 37 °C for 18 h and then MICs were determined. MICs of stable analogues in Table 1 were the highest value in three trials. MICs in Supplementary Table 1 were determined in one trial.

[2] = system: T2, E. faecalis(VRE) ATCC 51299; assay: microbe, parasite or virus in culture; parameters: CLSI broth microdilution MIC in MHB-II, single trial; conditions: Enterococcus faecalis, 18 h
T2 construct: ATCC 51299 (VRE)
Method: as §1

[3] = system: T3, E. faecium(VRE) ATCC 51559; assay: microbe, parasite or virus in culture; parameters: CLSI broth microdilution MIC in MHB-II, single trial; conditions: Enterococcus faecium, 18 h
T3 construct: ATCC 51559 (VRE)
Method: as §1

S. aureus ATCC 29213 = system: T4, S. aureus ATCC 29213; assay: microbe, parasite or virus in culture; parameters: CLSI broth microdilution MIC in MHB-II, single trial; conditions: Staphylococcus aureus, ATCC29213, 18 h
T4 construct: ATCC 29213
Method: as §1

E. faecium ATCC 35667 = system: T5, E. faecium ATCC 35667; assay: microbe, parasite or virus in culture; parameters: CLSI broth microdilution MIC in MHB-II, single trial; conditions: Enterococcus faecium, ATCC35667, 18 h
T5 construct: ATCC 35667
Method: as §1

[4] = system: T6, Staphylococcus aureus MRSA JE2; assay: microbe, parasite or virus in culture; parameters: CLSI broth microdilution MIC in MHB-II, single trial; conditions: 18 h
T6 construct: JE2 (MRSA)
Method: as §1

Enterococcus faecalis 26 = system: T7, Enterococcus faecalis 26; assay: microbe, parasite or virus in culture; parameters: CLSI broth microdilution MIC in MHB-II; conditions: Enterococcus faecalis, 26, 18 h, read-out: MIC
T7 construct: 26
Method: as §1

Enterococcus faecium 2 = assay: microbe, parasite or virus in culture; parameters: CLSI broth microdilution MIC in MHB-II; conditions: Enterococcus faecium, 2, 18 h, read-out: MIC
Method: as §1

Enterococcus faecalis 22 = system: T8, Enterococcus faecalis 22; assay: microbe, parasite or virus in culture; parameters: CLSI broth microdilution MIC in MHB-II; conditions: Enterococcus faecalis, 22, 18 h, read-out: MIC
T8 construct: 22
Method: as §1

Enterococcus faecium 10 = system: T9, Enterococcus faecium 10; assay: microbe, parasite or virus in culture; parameters: CLSI broth microdilution MIC in MHB-II; conditions: Enterococcus faecium, 10, 18 h, read-out: MIC
T9 construct: 10
Method: as §1

Enterococcus faecium 8 = assay: microbe, parasite or virus in culture; parameters: CLSI broth microdilution MIC in MHB-II; conditions: Enterococcus faecium, 8, 18 h, read-out: MIC
Method: as §1

Enterococcus faecium 9 = assay: microbe, parasite or virus in culture; parameters: CLSI broth microdilution MIC in MHB-II; conditions: Enterococcus faecium, 9, 18 h, read-out: MIC
Method: as §1

Enterococcus faecium 11 = system: T10, Enterococcus faecium 11; assay: microbe, parasite or virus in culture; parameters: CLSI broth microdilution MIC in MHB-II; conditions: Enterococcus faecium, 11, 18 h, read-out: MIC
T10 construct: 11
Method: as §1

[5] = system: T11, Staphylococcus aureus #2935; assay: microbe, parasite or virus in culture; parameters: CLSI broth microdilution MIC in MHB-II; conditions: Staphylococcus aureus, 18 h, read-out: MIC
T11 construct: #2935
Method: as §1

Enterococcus faecium 5 = assay: microbe, parasite or virus in culture; parameters: CLSI broth microdilution MIC in MHB-II; conditions: Enterococcus faecium, 5, 18 h, read-out: MIC
Method: as §1

Enterococcus faecium 4 = assay: microbe, parasite or virus in culture; parameters: CLSI broth microdilution MIC in MHB-II; conditions: Enterococcus faecium, 4, 18 h, read-out: MIC
Method: as §1

Enterococcus faecalis 27 = system: T12, Enterococcus faecalis 27; assay: microbe, parasite or virus in culture; parameters: CLSI broth microdilution MIC in MHB-II; conditions: Enterococcus faecalis, 27, 18 h, read-out: MIC
T12 construct: 27
Method: as §1

Enterococcus faecalis 21 = system: T13, Enterococcus faecalis 21; assay: microbe, parasite or virus in culture; parameters: CLSI broth microdilution MIC in MHB-II; conditions: Enterococcus faecalis, 21, 18 h, read-out: MIC
T13 construct: 21
Method: as §1

Enterococcus faecium 1 = assay: microbe, parasite or virus in culture; parameters: CLSI broth microdilution MIC in MHB-II; conditions: Enterococcus faecium, 1, 18 h, read-out: MIC
Method: as §1

Enterococcus faecalis 29 = system: T14, Enterococcus faecalis 29; assay: microbe, parasite or virus in culture; parameters: CLSI broth microdilution MIC in MHB-II; conditions: Enterococcus faecalis, 29, 18 h, read-out: MIC
T14 construct: 29
Method: as §1

MraYSA (S. aureus MraY) = MraYSA (S. aureus MraY) (Staphylococcus aureus, UniProt Q2FZ93); assay: fluorescence assay of dansylated lipid I formation; assay type: biochemical
in vitro = assay: in vitro; parameters: WST-8 cell viability assay in HepG2 cells; conditions: human, hepg2 cells; read-out: IC50
Method: Cells were regularly passed to maintain exponential growth. HepG2 cells were sowed by 1.0 × 10^4 cells for each well in 96-well plate and cultured at 37 °C under 5% CO2 in air for 24 h. The cells were treated with a solution of test compounds in DMSO at various concentration and incubated at 37 °C under 5% CO2 in air for 24 h. After that, the WST-8 (Dojindo) cell proliferation assay was used. Cell viability was indicated as a percentage of the negative control (cells treated with DMSO only) and that value was fixed at 100%.

Chain of MraYSA (S. aureus MraY) (Q2FZ93 whole entry): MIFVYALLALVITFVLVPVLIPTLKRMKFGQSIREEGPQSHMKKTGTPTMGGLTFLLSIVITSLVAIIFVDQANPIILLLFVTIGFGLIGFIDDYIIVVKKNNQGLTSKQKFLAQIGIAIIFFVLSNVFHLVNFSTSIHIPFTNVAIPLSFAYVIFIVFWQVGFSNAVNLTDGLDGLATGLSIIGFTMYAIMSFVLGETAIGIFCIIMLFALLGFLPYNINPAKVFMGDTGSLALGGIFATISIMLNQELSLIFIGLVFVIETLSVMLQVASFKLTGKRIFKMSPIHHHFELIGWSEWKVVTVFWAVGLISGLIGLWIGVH

| Compound | MIC (Enterococcus faecalis 26) [µg/mL] | MIC (Enterococcus faecium 2) [µg/mL] | MIC (Enterococcus faecalis 22) [µg/mL] | MIC (Enterococcus faecium 10) [µg/mL] | MIC (Enterococcus faecium 8) [µg/mL] | MIC (Enterococcus faecium 9) [µg/mL] | MIC (Enterococcus faecium 11) [µg/mL] | MIC [5] [µg/mL] | MIC (Enterococcus faecium 5) [µg/mL] | MIC (Enterococcus faecium 4) [µg/mL] | MIC (Enterococcus faecalis 27) [µg/mL] | MIC (Enterococcus faecalis 21) [µg/mL] | MIC (Enterococcus faecium 1) [µg/mL] | MIC (Enterococcus faecalis 29) [µg/mL] | IC50 (MraYSA (S. aureus MraY)) [µM] | CC50 at 24 h (in vitro) [µM] | also measured |
| --- | --- | --- | --- | --- | --- | --- | --- | --- | --- | --- | --- | --- | --- | --- | --- | --- | --- |
| CC1(C)S[C@@H]2[C@H](NC(=O)[C@H](N)c3ccccc3)C(=O)N2[C@H]1C(=O)O [ampicillin] | 1 (≈ 2.86 µM) | 128 (≈ 366 µM) | 1 (≈ 2.86 µM) | > 128 | 128 (≈ 366 µM) | > 128 | 128 (≈ 366 µM) | 16 (≈ 45.8 µM) | 128 (≈ 366 µM) | 128 (≈ 366 µM) | 1 (≈ 2.86 µM) | 1 (≈ 2.86 µM) | > 128 | 1 (≈ 2.86 µM) | – | – | MIC ([1]; read-out: ampicillin MIC): 128 µg/mL (≈ 366 µM); MIC ([2]; read-out: ampicillin MIC): 1 µg/mL (≈ 2.86 µM); MIC ([3]; read-out: ampicillin MIC): 128 µg/mL (≈ 366 µM); MIC (S. aureus ATCC 29213; read-out: ampicillin MIC): 1 µg/mL (≈ 2.86 µM); MIC (E. faecium ATCC 35667; read-out: ampicillin MIC): 1 µg/mL (≈ 2.86 µM); MIC ([4]; read-out: ampicillin MIC): 4 µg/mL (≈ 11.4 µM) |
| CCCCCCCCCCCCCCCC(=O)N[C@@H](CCCNC(=N)N)C(=O)NCc1ccc(CN[C@H](C(=O)O)[C@H](O[C@@H]2O[C@H](CN)[C@@H](O)[C@H]2O)[C@H]2O[C@@H](n3ccc(=O)[nH]c3=O)[C@H](O)[C@@H]2O)cc1 [compound 3, analogue 3] | 0.13 (≈ 0.135 µM) | 1 (≈ 1.04 µM) | 0.13 (≈ 0.135 µM) | 1 (≈ 1.04 µM) | 0.5 (≈ 0.52 µM) | 0.5 (≈ 0.52 µM) | 1 (≈ 1.04 µM) | – | 1 (≈ 1.04 µM) | 0.5 (≈ 0.52 µM) | 0.25 (≈ 0.26 µM) | 0.5 (≈ 0.52 µM) | 1 (≈ 1.04 µM) | 0.25 (≈ 0.26 µM) | 0.004 | 18 | MIC ([1]; read-out: 3 MIC): 2 µg/mL (≈ 2.08 µM); MIC ([2]; read-out: 3 MIC): 0.5 µg/mL (≈ 0.52 µM); MIC ([3]; read-out: 3 MIC): 0.5 µg/mL (≈ 0.52 µM); MIC (S. aureus ATCC 29213; read-out: 3 MIC): 1 µg/mL (≈ 1.04 µM); MIC (E. faecium ATCC 35667; read-out: 3 MIC): 1 µg/mL (≈ 1.04 µM); MIC ([4]; read-out: 3 MIC): 1 µg/mL (≈ 1.04 µM) |
| CCCCCCCCCCCCCCCC(=O)N[C@@H](CCCNC(=N)N)C(=O)Nc1ccc(CN[C@H](C(=O)O)[C@H](O[C@@H]2O[C@H](CN)[C@@H](O)[C@H]2O)[C@H]2O[C@@H](n3ccc(=O)[nH]c3=O)[C@H](O)[C@@H]2O)cc1 [compound 7, analogue 7] | 0.13 (≈ 0.137 µM) | 0.5 (≈ 0.527 µM) | 0.13 (≈ 0.137 µM) | 1 (≈ 1.05 µM) | 0.5 (≈ 0.527 µM) | 0.25 (≈ 0.264 µM) | 2 (≈ 2.11 µM) | – | 0.5 (≈ 0.527 µM) | 0.5 (≈ 0.527 µM) | 0.25 (≈ 0.264 µM) | 0.5 (≈ 0.527 µM) | 1 (≈ 1.05 µM) | < 0.06 | 0.0017 | 25 | MIC ([1]; read-out: 7 MIC): 2 µg/mL (≈ 2.11 µM); MIC ([2]; read-out: 7 MIC): 0.5 µg/mL (≈ 0.527 µM); MIC ([3]; read-out: 7 MIC): 0.5 µg/mL (≈ 0.527 µM); MIC (S. aureus ATCC 29213; read-out: 7 MIC): 1 µg/mL (≈ 1.05 µM); MIC (E. faecium ATCC 35667; read-out: 7 MIC): 0.5 µg/mL (≈ 0.527 µM); MIC ([4]; read-out: 7 MIC): 1 µg/mL (≈ 1.05 µM) |
| C[C@H]1COc2c(N3CCN(C)CC3)c(F)cc3c(=O)c(C(=O)O)cn1c23 [levofloxacin] | 0.5 (≈ 1.38 µM) | > 32 | 1 (≈ 2.77 µM) | > 32 | > 32 | > 32 | > 32 | > 32 | 32 (≈ 88.6 µM) | > 32 | 1 (≈ 2.77 µM) | 0.5 (≈ 1.38 µM) | > 32 | 0.5 (≈ 1.38 µM) | – | – | MIC ([1]; read-out: levofloxacin MIC): 4 µg/mL (≈ 11.1 µM); MIC ([2]; read-out: levofloxacin MIC): 1 µg/mL (≈ 2.77 µM); MIC ([3]; read-out: levofloxacin MIC): 16 µg/mL (≈ 44.3 µM); MIC (S. aureus ATCC 29213; read-out: levofloxacin MIC): 0.13 µg/mL (≈ 0.36 µM); MIC (E. faecium ATCC 35667; read-out: levofloxacin MIC): 4 µg/mL (≈ 11.1 µM); MIC ([4]; read-out: levofloxacin MIC): 8 µg/mL (≈ 22.1 µM) |
| CN[C@H](CC(C)C)C(=O)N[C@H]1C(=O)N[C@@H](CC(N)=O)C(=O)N[C@H]2C(=O)N[C@H]3C(=O)N[C@H](C(=O)N[C@H](C(=O)O)c4cc(O)cc(O)c4-c4cc3ccc4O)[C@H](O)c3ccc(c(Cl)c3)Oc3cc2cc(c3O[C@@H]2O[C@H](CO)[C@@H](O)[C@H](O)[C@H]2O[C@H]2C[C@](C)(N)[C@H](O)[C@H](C)O2)Oc2ccc(cc2Cl)[C@H]1O [vancomycin] | 1 (≈ 0.69 µM) | 1 (≈ 0.69 µM) | 1 (≈ 0.69 µM) | 1 (≈ 0.69 µM) | 1 (≈ 0.69 µM) | 1 (≈ 0.69 µM) | 1 (≈ 0.69 µM) | – | 1 (≈ 0.69 µM) | 1 (≈ 0.69 µM) | 1 (≈ 0.69 µM) | 1 (≈ 0.69 µM) | 1 (≈ 0.69 µM) | 1 (≈ 0.69 µM) | – | – | MIC ([1]; read-out: vancomycin MIC): 128 µg/mL (≈ 88.3 µM); MIC ([2]; read-out: vancomycin MIC): 128 µg/mL (≈ 88.3 µM); MIC ([3]; read-out: vancomycin MIC): > 128 µg/mL; MIC (S. aureus ATCC 29213; read-out: vancomycin MIC): 1 µg/mL (≈ 0.69 µM); MIC (E. faecium ATCC 35667; read-out: vancomycin MIC): 1 µg/mL (≈ 0.69 µM); MIC ([4]; read-out: vancomycin MIC): 1 µg/mL (≈ 0.69 µM) |
